Patent US8227511B2, “Substituted chromanol derivatives and their use” (Bayer Intellectual Property GmbH, priority 2006, dated 2012)

Tests used:
CETP [1] = biological target: T1, CETP (Homo sapiens, UniProt P11597); experiment: CETP-SPA test; type: biochemical; details: transfer of 3H-cholesterol ester from human HDL to biotinylated LDL; 37° C. for 18 h
T1 construct: CETP is obtained in partially purified form from human plasma by differential centrifugation and column chromatography and used for the test; from tissue; host or cells: human plasma
T1 sequence (P11597 18-493): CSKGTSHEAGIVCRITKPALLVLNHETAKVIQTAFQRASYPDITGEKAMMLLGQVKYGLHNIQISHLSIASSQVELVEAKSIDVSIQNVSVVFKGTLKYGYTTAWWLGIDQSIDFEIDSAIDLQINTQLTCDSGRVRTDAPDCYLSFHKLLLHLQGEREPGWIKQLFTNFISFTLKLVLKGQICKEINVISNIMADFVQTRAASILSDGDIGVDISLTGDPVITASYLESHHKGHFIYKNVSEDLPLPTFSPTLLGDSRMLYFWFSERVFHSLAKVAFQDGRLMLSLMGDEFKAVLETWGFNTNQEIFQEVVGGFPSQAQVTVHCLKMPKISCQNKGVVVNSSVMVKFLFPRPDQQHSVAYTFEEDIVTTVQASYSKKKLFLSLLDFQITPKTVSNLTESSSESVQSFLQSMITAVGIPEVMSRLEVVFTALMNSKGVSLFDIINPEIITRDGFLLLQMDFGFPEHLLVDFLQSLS
Experimental: (§1) CETP is obtained in partially purified form from human plasma by differential centrifugation and column chromatography and used for the test. To this end, human plasma is adjusted to a density of 1.21 g per ml using NaBr and centrifuged at 4° C. at 50 000 rpm for 18 h. The bottom fraction (d>1.21 g/ml) is applied to a Phenyl-Sepharose 26/10 HP fast flow-column (Pharmacia), washed with PBS buffer and then eluted with distilled water. 10 parts of PBS buffer and 1% (w/v) BSA are added to the eluate. The CETP-active fractions are pooled.
For testing of the CETP activity, the transfer of ^3H-cholesterol ester from human HD lipoproteins to biotinylated LD lipoproteins is measured. The reaction is ended by addition of streptavidin-SPA® beads (Amersham) and the transferred radioactivity is determined directly in a liquid scintillation counter.
In the test batch, 10 μl of HDL-3H-cholesterol ester (about 50 000 cpm) are incubated at 37° C. for 18 h with 10 μl of biotin-LDL (Amersham) in 50 mM Hepes/0.15 M NaCl/0.1% bovine serum albumin (RSA)/0.05% NaN3 pH 7.4 containing 10 μl of CETP (1 mg/ml) and 3 μl of a solution of the substance to be tested (dissolved in 10% DMSO/1% RSA). 200 μl of the SPA-streptavidin bead solution (TRKQ 7005) are then added, incubated further with shaking for 1 h and then measured in a scintillation counter. Corresponding incubations with 10 μl of buffer, 10 μl of CETP at 4° C. and 10 μl of CETP at 37° C. serve as controls.
The activity transferred in the control batches with CETP at 37° C. is rated as 100% transfer. The substance concentration at which this transfer is reduced to half is specified as the IC50 value.

CETP [2] = biological target: T1, CETP; experiment: CETP fluorescence test with enriched CETP; type: biochemical; details: enriched CETP fraction from human plasma; transfer of fluorescent cholesterol ester between liposomes; 37° C. for 4 h
Experimental: as §1
Measurement of the CETP-catalyzed transfer of a fluorescent cholesterol ester between liposomes [modified according to the procedure of Bisgaier et al., J. Lipid Res. 34, 1625 (1993)]:
For the production of the donor liposomes, 1 mg of cholesteryl 4,4-difluoro-5,7-dimethyl-4-bora-3a,4a-diaza-s-indacene-3-dodecanoate (cholesteryl BODIPY® FL C12, Molecular Probes) is dissolved in 2 ml of chloroform with 5.35 mg of triolein and 6.67 mg of phosphatidylcholine. The solvent is removed at medium temperature in a SpeedVac and the residue is dried under high vacuum for 1 h. The residue is then dissolved in 600 μl of dioxane with gentle warming in an ultrasonic bath and this solution is added very slowly with ultrasonication to 63 ml of 50 mM Tris/HCl, 150 mM NaCl, 2 mM EDTA buffer pH 7.3 at room temperature. The suspension is then ultrasonicated under an N2 atmosphere for 30 minutes in the Branson ultrasonic bath at about 50 watts, the temperature being kept at about 20° C.
The acceptor liposomes are obtained analogously from 86 mg of cholesteryl oleate, 20 mg of triolein and 100 mg of phosphatidylcholine dissolved in 1.2 ml of dioxane and 114 ml of the above buffer by ultrasonication at 50 watts (20° C.) for 30 minutes.
For testing, a test mix consisting of 1 part of above buffer, 1 part of donor liposomes and 2 parts of acceptor liposomes is used.
50 μl of test mix are treated with 48 μl of enriched CETP fraction (1-3 μg), obtained from human plasma by means of hydrophobic chromatography, and 2 μl of a solution of the substance to be investigated in DMSO and incubated at 37° C. for 4 h.
The change in the fluorescence at 485/535 nm is a measure of the CE transfer; the inhibition of the transfer in comparison to the control batch without substance is determined.

| IC50 (CETP [1]) [nM] | IC50 (CETP [2]) [nM] | Compound |
| --- | --- | --- |
| 400 | 800 | CC(C)c1cc2c(c(-c3ccc(F)cc3)c1[C@H](O)c1ccc(C(C)(C)C)cc1)[C@@H](O)CC1(CCC1)O2 [Example 35, (4S)-6-[(R)-(4-tert-butylphenyl)(hydroxy)methyl]-5-(4-fluorophenyl)-7-isopropyl-3,4-dihydro-spiro[chromen-2,1′-cyclobutan]-4-ol] |
| 100 | 61 | CC(C)c1cc2c(c(C3CCCC3)c1[C@H](F)c1ccc(C(F)(F)F)cc1)[C@@H](O)CC1(CCC1)O2 [Example 43, (4S)-5-cyclopentyl-6-{(R)-fluoro[4-(trifluoromethyl)phenyl]methyl}-7-isopropyl-3,4-dihydrospiro-[chroman-2,1′-cyclobutan]-4-ol] |
| – | 373 | CC(C)c1cc2c(c(-c3ccc(F)cc3)c1[C@H](F)c1ccc(C(F)(F)F)cc1)[C@@H](O)CC(C)(C)O2 [Example 8, (4S)-5-(4-fluorophenyl)-6-{(R)-fluoro[4-(trifluoromethyl)phenyl]methyl}-7-isopropyl-2,2-dimethylchroman-4-ol] |
| – | 50 | CC(C)c1cc2c(c(-c3ccc(F)cc3)c1C(F)c1ccc(OC(F)(F)F)cc1)[C@@H](O)CC1(CCC1)O2 (mixture of isomers) [Example 40, (4S)-5-(4-Fluorophenyl)-6-{fluoro[4-(trifluoromethoxy)phenyl]methyl}-7-isopropyl-3,4-dihydrospiro[chromen-2,1′-cyclobutan]-4-ol] |
| – | 176 | CC(C)c1cc2c(c(-c3ccc(F)cc3)c1C(=O)c1ccc(C(C)(C)C)cc1)[C@@H](O)CC(C)(C)O2 [Example 14, (4-tert-Butylphenyl)[(4S)-5-(4-fluorophenyl)-4-hydroxy-7-isopropyl-2,2-dimethyl-3,4-dihydro-2H-chromen-6-yl]methanone] |
| 38 | 50 | CC(C)(C)c1ccc(C(=O)c2c(C3CCCC3)cc3c(c2-c2ccc(F)cc2)[C@@H](O)CC2(CCC2)O3)cc1 [Example 47] |
| 30 | 198 | O[C@@H](c1ccc(OC(F)(F)F)cc1)c1c(C2CCCC2)cc2c(c1-c1ccc(F)cc1)[C@@H](O)CC1(CCC1)O2 [Example 52] |
| – | 38 | CC(C)c1cc2c(c(-c3ccc(F)cc3)c1[C@@H](O)c1ccc(C(C)(C)C)cc1)[C@@H](O)CC(C)(C)O2 [Example 15, (4S)-6-[(S)-(4-tert-Butylphenyl)(hydroxy)methyl]-5-(4-fluorophenyl)-7-isopropyl-2,2-dimethyl-chroman-4-ol] |
| – | 49 | CC(C)c1cc2c(c(C3=CCCCC3)c1[C@@H](O)c1ccc(C(F)(F)F)cc1)[C@@H](O)CC(C)(C)O2 [Example 20, (4S)-5-Cyclohex-1-en-1-yl-6-{(S)-hydroxy[4-(trifluoromethyl)phenyl]methyl}-7-isopropyl-2,2-di-methylchroman-4-ol] |
| – | 792 | CC(C)c1cc2c(c(-c3ccccc3)c1C(=O)c1ccc(OC(F)(F)F)cc1)[C@@H](O)CC(C)(C)O2 [Example 18, [(4S)-4-Hydroxy-7-isopropyl-2,2-dimethyl-5-phenyl-3,4-dihydro-2H-chromen-6-yl][4-(trifluoromethoxy)phenyl]methanone] |
| 16 | 30 | CC(C)c1cc2c(c(C3CCCC3)c1[C@@H](O)c1ccc(C(F)(F)F)cc1)[C@@H](O)CC(C)(C)O2 [Example 24, (4S)-5-Cyclopent-1-yl-6-{(S)-hydroxy[4-(trifluoromethyl)phenyl]methyl}-7-isopropyl-2,2-dimethylchroman-4-ol] |
| 15 | 19 | CC(C)c1cc2c(c(-c3ccc(F)cc3)c1Cc1ccc(OC(F)(F)F)cc1)[C@@H](O)CC1(CCC1)O2 [Example 41, (4S)-5-(4-Fluorophenyl)-7-isopropyl-6-[4-(trifluoromethoxy)benzyl]-3,4-dihydrospiro[chromen-2,1′-cyclobutan]-4-ol] |
| 14 | 33 | CC(C)(C)c1ccc([C@H](O)c2c(C3CCCC3)cc3c(c2-c2ccc(F)cc2)[C@@H](O)CC2(CCC2)O3)cc1 [Example 48] |
| 5 | 14 | CC(C)c1cc2c(c(-c3ccc(F)cc3)c1[C@@H](O)c1ccc(C(C)(C)C)cc1)[C@@H](O)CC1(CCC1)O2 [Example 34, (4S)-6-[(S)-(4-tert-Butylphenyl)(hydroxy)methyl]-5-(4-fluorophenyl)-7-isopropyl-3,4-dihydro-spiro[chromen-2,1′-cyclobutan]-4-ol] |
| 31 | 45 | O=C(c1ccc(C(F)(F)F)cc1)c1c(C2CCCC2)cc2c(c1-c1ccc(F)cc1)[C@@H](O)CC1(CCC1)O2 [Example 44] |
| – | 39 | O[C@H]1CC2(CCC2)Oc2cc(C3CCCC3)c(C(F)c3ccc(OC(F)(F)F)cc3)c(-c3ccc(F)cc3)c21 (some centres unmarked) [Example 54] |
| – | 70 | CC(C)c1cc2c(c(-c3ccc(F)cc3)c1Cc1ccc(C(C)(C)C)cc1)[C@@H](O)CC(C)(C)O2 [Example 17, (4S)-6-(4-tert-Butylbenzyl)-5-(4-fluorophenyl)-7-isopropyl-2,2-dimethylchroman-4-ol] |
| 300 | 200 | CC(C)c1cc2c(c(C3=CCCCC3)c1C(=O)c1ccc(C(F)(F)F)cc1)[C@@H](O)CC(C)(C)O2 [Example 19, (5-Cyclohex-1-en-1-yl-4-hydroxy-7-isopropyl-2,2-dimethyl-3,4-dihydro-2H-chromen-6-yl)[4-(tri-fluoromethyl)phenyl]methanone] |
| 15 | 30 | CC(C)(C)c1ccc(Cc2c(C3CCCC3)cc3c(c2-c2ccc(F)cc2)[C@@H](O)CC2(CCC2)O3)cc1 [Example 50] |
| – | 263 | CC(C)c1cc2c(c(-c3ccc(F)cc3)c1[C@H](O)c1ccc(C(F)(F)F)cc1)[C@@H](O)CC1(CC1)O2 [Example 56] |
| – | 340 | CC1(C)C[C@H](O)c2c(cc(C3CCCC3)c([C@@H](O)c3ccc(C(F)(F)F)cc3)c2-c2ccc(F)cc2)O1 [Example 1, (4S)-7-Cyclopentyl-5-(4-fluorophenyl)-6-{(S)-hydroxy[4-(trifluoromethyl)phenyl]methyl}-2,2-dimethylchroman-4-ol] |
| 400 | – | CC(C)(C)c1ccc([C@@H](O)c2c(C3CCCC3)cc3c(c2-c2ccc(F)cc2)[C@@H](O)CC2(CCC2)O3)cc1 [Example 49] |
| – | 48 | CC(C)c1cc2c(c(C3CCCC3)c1Cc1ccc(C(F)(F)F)cc1)[C@@H](O)CC(C)(C)O2 [Example 26, (4S)-5-Cyclopentyl-7-isopropyl-2,2-dimethyl-6-[4-(trifluoromethyl)benzyl]chroman-4-ol] |
| – | 93 | CC(C)c1cc2c(c(-c3ccc(F)cc3)c1C(=O)c1ccc(OC(F)(F)F)cc1)[C@@H](O)CC(C)(C)O2 [Example 10, [(4S)-5-(4-Fluorophenyl)-4-hydroxy-7-isopropyl-2,2-dimethyl-3,4-dihydro-2H-chromen-6-yl][4-(trifluoromethoxy)phenyl]methanone] |
